{
  "source": "patent US5242942A",
  "about": "“Anticonvulsant fructopyranose cyclic sulfites and sulfates” (McNeilab, Inc., priority 1992, dated 1993)",
  "key": {"tonic extensor seizure": {"system": "tonic extensor seizure", "assay": "maximal electroshock test (MES)", "type": "in vivo, mouse (albino male CRS-CD1)", "conditions": "mouse, PO, at 4 hr", "description": "The compounds of formula (I) are particularly useful as anticonvulsant agents in mammals including humans. The anticonvulsant activity of the subject compounds was determined using a standard \"maximal electroshock test\" (MES). In this test, activity is indicated by a block of the […] extensor seizure caused by application of an electric shock to mice via corneal electrodes, as described by Swinyard et al. in J. Pharmacol. Expt. Ther. 1952, 106, 319, and recorded as % block. A more recent description of current anticonvulsant drug screening is given by Swinyard in Epilepsia 1978, 19, 409. The anticonvulsant activity of the compounds of this invention tested according to the Swinyard 1952 method is shown in the following Table I.\nIn the test, albino male CRS-CD1 mice weighing between 18-25 g were used in all experiments (obtained from Charles River). They were allowed food and water ad libitum and were used only once. The electroshock apparatus and the corneal electrodes were purchased from Wahlquist Instrument Company, Salt Lake City, Utah.\nMaximal electroshock seizures were induced by the delivery of a 60 Hertz (Hz) current of 50 milliamps (mA) intensity to the mouse through corneal electrodes for 0.2 seconds as originally described by Swinyard et al. (1952). This stimulus intensity is approximately 4 to 6 times the current producing 100% tonic extensor convulsions. During the validation of the MES test, the duration of the various seizure components following maximal electroshock were measured as follows: hindleg tonic flexion was measured from the time of the application of the stimulus to the time of onset of hindleg tonic extension (i.e. when the hindlegs deviate by greater than an angle of 90° from the torso), hindleg tonic extensor was measured from the time of extensor thrust to the onset of generalized clonus, and terminal clonus was measured from the beginning to the end of bilateral rhythmic clonic jerking. Mortality was also recorded. The duration of each seizure component agreed well with the values previously reported by Tedeschi et al. in J. Pharmacol. Expt. Ther. 1955, 116, 107. The corneal electrodes were concave so that saline could be applied to the electrodes to reduce mortality. If this procedure is followed, mortality should always be less than 40% in control mice. Thus, at an electroshock stimulus of 60 Hz, 50 mA and 0.2 seconds duration, the order of convulsive components and the percentage of control animals displaying the behaviors should be as follows: tonic flexion (100%), tonic extension (100%) and clonus (100%) with less than 40% mortality.\nFor testing compounds, the abolition of the tonic extensor component was the endpoint. Animals were dosed orally (PO) with either vehicle or test drug and at a specified time were given a maximal electric shock through corneal electrodes blotted with saline (as described above). A minimum of 10 animals were used per group and the percentage of animals in the group without tonic hindlimb extension recorded. Determination of ED50 values (that dose of drug inhibiting 50% of the tonic extensor seizures) is shown below in Table I."}, "Total Acid Output": {"system": "Total Acid Output", "assay": "pylorus-ligated rat test, gastric antisecretory activity", "type": "in vivo, rat (male Charles River Sprague-Dawley derived)", "conditions": "PO, read-out: ED50, inhibition of Total Acid Output", "description": "The gastric antisecretory activity of the compounds shown in Table II was determined by the pylorus-ligated rat test described by Shay et al. in Gastroenterol. 1954, 26, 906. In this method, male Charles River Sprague-Dawley derived rats weighing 150-300 grams were deprived of food but not water for 18-24 hours prior to use. Water was withheld during the experiment, however. The rats were weighed, lightly anesthetized with ether and the pylorus ligated according to the method of Shay et al., supra. The treatment or vehicle control was then administered intraperitoneally (IP) or orally (PO). When administered by the IP route, the administration was done 30 minutes before ligation. When administered by the PO route, the administration was done prior to ligation (about 1/2 to 3 hours before). Rats were housed two per cage and sacrificed with carbon dioxide 3 hours after ligation. Their stomachs were removed, rinsed, and contents emptied into a graduated centrifuge tube. The tubes were centrifuged, the volume of gastric juice was recorded, and any samples obviously contaminated by feces, food or blood were eliminated. A 1 mL aliquot of gastric juice was titrated with 0.1N NaOH to a pH of 7.0-7.4. The volume of gastric juice secreted, the acid concentration, and the product of the volume times the concentration, i.e. the total amount of acid secreted, were measured. The total acid output was calculated by multiplying the volume of gastric juices collected times the hydrogen ion concentration (amount of NaOH added to a sample to reach a pH of 7.0-7.4) and dividing that value by 10. The mean value of the total acid output for a control group of rats was then subtracted from the mean value of the total acid output for the group of rats tested at the same dose. That value was then divided by the mean value of total acid output for the control group and the resulting number was multiplied by 100 to provide a Percent Inhibition value, which values are reported in Table II. The […] was determined statistically as the dose at which a 50% inhibition would be realized."}},
  "data": [
    {"smiles": "CC1(C)O[C@H]2[C@@H]3OS(=O)(=O)O[C@@H]3CO[C@@]2(COS(N)(=O)=O)O1", "note": "[Example 1, 2,3-O-(1-Methylethylidene)-4,5-O-sulfonyl-β-D-fructopyranose Sulfamate]", "values": [
      {"measurement": "ED50", "setting": "tonic extensor seizure", "value": 6.3, "unit": "mg/kg"},
      {"measurement": "ED50", "setting": "Total Acid Output", "value": 20, "unit": "mg/kg"}
    ]}
  ]
}
